From US12370202B2, “Methods and compositions for inhibiting the NLRP3 inflammasome and/or LON protease” (TRITERPENOID THERAPEUTICS, INC., priority 2019, dated 2025)

What was measured:
ARH77 cells = assay: MM cell proliferation (confluence), IncuCyte imaging; format: cell-based, human; details: 72 hours
Protocol: (§1) FIG. 2 is a bar graph. CDDO-2P-Im inhibits proliferation of multiple myeloma cell line in vitro. 5T33MM, RPMI8226, and ARH77 cells were seeded in 96-well plates and incubated with CDDO-2P-Im (50 nM-150 nM). Confluence (cell proliferation) was measured using IncuCyte imaging after 72 hours. *p<0.01 compared to control.
(§2) FIG. 3 is a bar graph. […] Shown here are results for 5T33MM (50 nM TTX01/7.5 nM IXZ); RPMI8226 (100 nM TTX01/7.5 nM IXZ); and ARH77 (150 nM TTX01/10 nM IXZ). Confluence (cell proliferation) was measured using IncuCyte imaging after 72 hours.
(§3) To examine tumor-intrinsic effects of CDDO-2P-IM in the 5T33MM cell line and in human MM cells, conducted a series of in vitro studies was conducted. For these experiments, 96-well plates were first coated in poly-L-ornithine before cells were seeded (in triplicate), including the murine 5T33MM and the human RPMI8226, and ARH77 cell lines (15,000 cells per well). Cells were incubated in IncuCyte™ Live-Cell Analysis System for 72 hours (images were taken every 4 hours). To define dose-dependent effect of CDDO-2P-IM, cells were exposed to concentrations ranging from 50 nM to 150 nM. To examine potential synergy of CDDO-2P-IM with IXZ, MM cells were exposed to IXZ (7 nM-10 nM) either alone or in combination with CDDO-2P-IM.

RPMI8226 cells = assay: as above; format: cell-based, human; details: 72 hours
Protocol: as §1, §2, §3

Caspase 1 = Caspase 1 activation in LPS-primed BMDM, immunoblotting (caspase-p10); format: cell-based, mouse; details: different doses (30-1000 nM) 15 min before ATP (5 mM) 45 min
Protocol: FIG. 5 depicts a Western blot. CDDO-Im, CDDO-2P-Im, and CDDO-3P-Im inhibit Caspase 1 activation. LPS primed BMDM were treated with different doses of CDDO-Im, CDDO-2P-Im, or CDDO-3P-Im for 15 min before ATP (5 mM) was added for 45 min. Medium supernatant (SUP) and cell extracts (Lys) were analyzed by immunoblotting.
The effects of the pyridyl derivatives of CDDO-IM, (specifically, CDDO-2P-Im and CDDO-3P-Im) on NLRP3 inflammasome activation were tested in mouse BMDMs. Cells were first primed with LPS for 4 hours, then pretreated with specific doses of either CDDO-Im, CDDO-2P-IM or CDDO-3P-Im (30-1000 nM) for 15 min before ATP was added for another 45 min. CDDO-Im and its pyridyl derivatives inhibited the amount of caspase-p10 (an auto-processed fragment of caspase-1) released into cell culture supernatants in a dose-dependent manner as measured by Western blot (FIG. 5). […] The effect on caspase-1 activation is specific for the NLRP3 inflammasome as the AIM2 inflammasome activation by poly(dA:dT) was not inhibited by the synthetic CDDO-Im derivatives (data not shown).

brain tumor cell lines = assay: Radiation response of brain tumor cell lines in vitro; format: cell-based
LONP1 = LONP1 (Homo sapiens, UniProt P36776); assay: Binding to LONP1
A2780 = assay: Ovarian cancer cell growth (confluence), IncuCyte ZOOM; format: cell-based, human
Source text: (§4) FIG. 11 is a set of line graphs. Cisplatin resistant human ovarian cancer cell lines A2780, CP70, OV81, CP10, OVCAR-5 and OVCAR-8 were exposed to CDDO-2P-Im, cisplatin, or a combination of CDDO-2P-Im and cisplatin.
(§5) CDDO-2P-Im suppresses growth of cisplatin-resistant human ovarian cancer cells in vitro. Cisplatin resistant human ovarian cancer cell lines A2780, CP70, OV81, CP10, OVCAR-5 and OVCAR-8 cell were each cultured in a complete medium consisting of RPMI1640, 20% heat-inactivated FBS, 1% penicillin/streptomycin. Cells were cultured in a water jacketed CO2 incubator at 37° C. in a humidified atmosphere consisting of 5% CO2 and 95% air. Continuous live-cell analysis (CLCA) was used as a non-invasive cell monitoring and measurement method based on time-lapse, phase-contrast microscopy and fluorescence imaging, using IncuCyte® ZOOM. Cells were seeded in 96-well plates at densities of either 1×10^4 or 3×10^4 cell/cm^2 followed by addition of a drug dilution series for either CDDO-2P-Im or Cisplatin (P4394, Sigma) dissolved in PBS and diluted in media. […] Reduction in confluence is accompanied by the detachment and death of ovarian cancer cells.

CP10 = assay: as above; format: cell-based, human
Source text: as §4, §5

CP70 = assay: as above; format: cell-based, human
Source text: as §4, §5

OV81 = assay: as above; format: cell-based, human
Source text: as §4, §5

OVCAR-5 = assay: as above; format: cell-based, human
Source text: as §4, §5

OVCAR-8 = assay: as above; format: cell-based, human
Source text: as §4, §5

[1] = suboptimal doses combined with cisplatin, significance at 0.005 or greater

Sequence of LONP1 (P36776 68-959, species assumed): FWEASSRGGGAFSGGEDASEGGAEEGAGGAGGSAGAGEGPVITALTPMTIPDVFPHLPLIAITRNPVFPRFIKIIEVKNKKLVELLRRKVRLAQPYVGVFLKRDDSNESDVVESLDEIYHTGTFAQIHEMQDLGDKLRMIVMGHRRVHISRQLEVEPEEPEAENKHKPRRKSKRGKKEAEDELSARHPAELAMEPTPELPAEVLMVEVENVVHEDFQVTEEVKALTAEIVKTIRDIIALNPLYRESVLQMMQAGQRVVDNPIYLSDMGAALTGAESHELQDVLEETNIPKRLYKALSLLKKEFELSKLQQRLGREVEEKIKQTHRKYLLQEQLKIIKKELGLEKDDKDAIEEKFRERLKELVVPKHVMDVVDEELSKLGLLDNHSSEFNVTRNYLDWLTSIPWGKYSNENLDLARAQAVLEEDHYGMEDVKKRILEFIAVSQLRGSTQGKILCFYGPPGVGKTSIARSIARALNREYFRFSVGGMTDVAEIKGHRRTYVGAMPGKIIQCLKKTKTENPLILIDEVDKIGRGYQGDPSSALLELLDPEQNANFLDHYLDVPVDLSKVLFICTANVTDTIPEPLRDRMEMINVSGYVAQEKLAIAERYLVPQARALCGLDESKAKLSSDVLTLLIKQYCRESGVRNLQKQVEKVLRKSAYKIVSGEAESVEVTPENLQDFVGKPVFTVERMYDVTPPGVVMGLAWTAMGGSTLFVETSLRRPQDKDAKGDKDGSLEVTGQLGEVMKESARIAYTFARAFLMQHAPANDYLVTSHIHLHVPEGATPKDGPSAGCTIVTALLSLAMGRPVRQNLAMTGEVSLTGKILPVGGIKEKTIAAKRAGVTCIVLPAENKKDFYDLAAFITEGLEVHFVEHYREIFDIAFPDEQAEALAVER

CC1(C)CC[C@]2(C(=O)n3cnc(-c4ccccn4)c3)CC[C@]3(C)[C@H](C(=O)C=C4[C@@]5(C)C=C(C#N)C(=O)C(C)(C)[C@@H]5CC[C@]43C)[C@@H]2C1 [CDDO-2P-Im, 1-[2-Cyano-3,12-dioxooleana-1,9(11)-dien-28-oyl]-4(-pyridin-2-yl)-1H-imidazole]
proliferation (confluence) (ARH77 cells; 50 nM-150 nM): significant dose-dependent suppressive effects | proliferation (confluence), combination with IXZ (ARH77 cells; 150 nM TTX01/10 nM IXZ): act synergistically | proliferation (confluence), agent added alone (ARH77 cells; 150 nM TTX01 or 10 nM IXZ alone): only partially effective | proliferation (confluence) (RPMI8226 cells; 50 nM-150 nM): significant dose-dependent suppressive effects | proliferation (confluence), combination with IXZ (RPMI8226 cells; 100 nM TTX01/7.5 nM IXZ): act synergistically | proliferation (confluence), agent added alone (RPMI8226 cells; 100 nM TTX01 or 7.5 nM IXZ alone): only partially effective | Caspase 1 activation (caspase-p10 released into supernatant) (Caspase 1): inhibit | radiation response (brain tumor cell lines): enhances radiation response | binding to LONP1 (LONP1): shown to bind LONP1 | growth (confluence) (A2780; nanomolar concentrations): suppressed growth in a dose-dependent manner | ovarian cancer cell kill, combination with cisplatin (A2780; [1]): significant gain | sensitivity (growth) (CP10): highly sensitive | ovarian cancer cell kill, combination with cisplatin (CP10; [1]): significant gain | growth (confluence) (CP70; nanomolar concentrations): suppressed growth in a dose-dependent manner | ovarian cancer cell kill, combination with cisplatin (CP70; [1]): significant gain | sensitivity (growth) (OV81): highly sensitive | ovarian cancer cell kill, combination with cisplatin (OV81; [1]): significant gain | sensitivity (growth) (OVCAR-5): highly sensitive | ovarian cancer cell kill, combination with cisplatin (OVCAR-5; [1]): significant gain | sensitivity (growth) (OVCAR-8): highly sensitive | ovarian cancer cell kill, combination with cisplatin (OVCAR-8; [1]): significant gain
